What follows are compounds tested against T1, human LPA1 (Homo sapiens, UniProt Q92633) (assay: LPA1 functional antagonist assay (calcium flux)). Conditions: CHO cells overexpressing human LPA1; calcium flux induced by 10 nM LPA; read-out: hLPA1 IC50.
T1 construct: expressed in transfected cells; host or cells: Chinese hamster ovary (CHO) cells
Type: cell-based
Method: The effectiveness of compounds of the present invention as LPA1 inhibitors can be determined in an LPA1 functional antagonist assay as follows:
The cells were then equilibrated to room temperature for 30 minutes before the assay. […] IC50 values were determined by fitting data to a 4-parameter logistic equation (GraphPad Prism, San Diego Calif.).

T1 sequence (Q92633 whole entry): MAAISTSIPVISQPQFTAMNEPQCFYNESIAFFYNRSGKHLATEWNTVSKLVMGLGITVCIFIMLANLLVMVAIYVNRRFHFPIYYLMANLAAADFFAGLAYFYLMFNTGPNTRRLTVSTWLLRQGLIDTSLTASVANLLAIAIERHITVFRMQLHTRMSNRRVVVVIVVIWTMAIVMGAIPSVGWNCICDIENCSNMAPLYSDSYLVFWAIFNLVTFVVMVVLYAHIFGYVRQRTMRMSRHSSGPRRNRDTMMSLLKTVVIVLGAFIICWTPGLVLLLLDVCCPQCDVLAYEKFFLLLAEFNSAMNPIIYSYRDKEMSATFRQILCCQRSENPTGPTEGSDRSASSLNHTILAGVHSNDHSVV

IC50 [nM]	Structure (SMILES)
72	Cc1nc(-c2nnn(C)c2NC(=O)OCC(C)(C)C)ccc1O[C@H]1CCC[C@H](C(=O)O)C1 [Example 67, (1S,3S)-3-((2-methyl-6-(1-methyl-5-(((neopentyloxy)carbonyl)amino)-1H-1,2,3-triazol-4-yl)pyridin-3-yl)oxy)cyclohexane-1-carboxylic acid]
89	CCCOC(=O)Nc1c(-c2ccc(O[C@H]3CCC[C@H](C(=O)O)C3)c(C)n2)nnn1C [Example 68, (1S,3S)-3-((2-methyl-6-(1-methyl-5-((propoxycarbonyl)amino)-1H-1,2,3-triazol-4-yl)pyridin-3-yl)oxy)cyclohexane-1-carboxylic acid]
129	Cc1nc(-c2nnn(C)c2NC(=O)OC(C)C)ccc1O[C@H]1CCC[C@H](C(=O)O)C1 [Example 70, (1S,3S)-3-((6-(5-((isopropoxycarbonyl)amino)-1-methyl-1H-1,2,3-triazol-4-yl)-2-methylpyridin-3-yl)oxy)cyclohexane-1-carboxylic acid]
6	CCCCCOC(=O)Nc1c(-c2ccc(O[C@H]3CCC[C@H](C(=O)O)C3)c(C)n2)nnn1C [Example 71, (1S,3S)-3-((2-methyl-6-(1-methyl-5-(((pentyloxy)carbonyl)amino)-1H-1,2,3-triazol-4-yl)pyridin-3-yl)oxy)cyclohexane-1-carboxylic acid]
26	Cc1nc(-c2nnn(C)c2NC(=O)O[C@H](C)c2ccccc2)ccc1O[C@H]1CCC[C@H](C(=O)O)C1 [Example 72, (1S,3S)-3-((2-methyl-6-(1-methyl-5-((((R)-1-phenylethoxy)carbonyl)amino)-1H-1,2,3-triazol-4-yl)pyridin-3-yl)oxy)cyclohexane-1-carboxylic acid]

The remaining lines, values behind:

Structure (SMILES)	IC50 [nM]
CCCC1(COC(=O)NCc2c(-c3ccc(O[C@H]4CCC[C@H](C(=O)O)C4)c(C)n3)nnn2C)CC1 [Example 60, (1S,3S)-3-((2-methyl-6-(1-methyl-5-(((((1-propylcyclopropyl)methoxy)carbonyl)amino)methyl)-1H-1,2,3-triazol-4-yl)pyridin-3-yl)oxy)cyclohexane-1-carboxylic acid]	12
Cc1ccc(OC(=O)NCc2c(-c3ccc(O[C@H]4CCC[C@H](C(=O)O)C4)c(C)n3)nnn2C)cc1 [Example 62, (1S,3S)-3-((2-methyl-6-(1-methyl-5-((((p-tolyloxy)carbonyl)amino)methyl)-1H-1,2,3-triazol-4-yl)pyridin-3-yl)oxy)cyclohexane-1-carboxylic acid]	148
COc1ccc(OC(=O)NCc2c(-c3ccc(O[C@H]4CCC[C@H](C(=O)O)C4)c(C)n3)nnn2C)cc1 [Example 63, (1S,3S)-3-((6-(5-((((4-methoxyphenoxy)carbonyl)amino)methyl)-1-methyl-1H-1,2,3-triazol-4-yl)-2-methylpyridin-3-yl)oxy)cyclo-hexane-1-carboxylic acid]	792
Cc1nc(-c2nnn(C)c2NC(=O)OC(C)(C)C)ccc1O[C@H]1CCC[C@H](C(=O)O)C1 [Example 64, (1S,3S)-3-((6-(5-((tert-butoxycarbonyl)amino)-1-methyl-1H-1,2,3-triazol-4-yl)-2-methylpyridin-3-yl)oxy)cyclohexane-1-carboxylicacid]	54
Cc1nc(-c2nnn(C)c2NC(=O)OCCC(C)(C)C)ccc1O[C@H]1CCC[C@H](C(=O)O)C1 [Example 65, (1S,3S)-3-((6-(5-(((3,3-dimethyl-butoxy)carbonyl)amino)-1-methyl-1H-1,2,3-triazol-4-yl)-2-methyl-pyridin-3-yl)oxy)cyclohexane-1-carboxylic acid]	75
Cc1nc(-c2nnn(C)c2NC(=O)OC2CCCC2)ccc1O[C@H]1CCC[C@H](C(=O)O)C1 [Example 66, (1S,3S)-3-((6-(5-(((cyclopentyloxy)carbonyl)amino)-1-methyl-1H-1,2,3-triazol-4-yl)-2-methylpyridin-3-yl)oxy)cyclohexane-1-carboxylic acid]	68

— patent publication US11697646B2, “Triazole N-linked carbamoyl cyclohexyl acids as LPA antagonists” (BRISTOL-MYERS SQUIBB COMPANY, priority 2017, dated 2023)
